For data set [1], the system named is Ofloxacin-induced persister cells of P. aeruginosa (PA14). Description: Bactericidal activity against persister cells. Type of data set: cell-based, Pseudomonas aeruginosa. The following applies: ATP up to 10 mM, persister cells 10^8 CFU/ml.
Procedure: Therefore, the 48-h-old-stationary phase was treated with Ofloxacin for 24 h to eradicate non-persister cells (FIG. 5A). Ofloxacin was used at 415 µM, corresponding to 30-fold the MIC for the PAO1 wild-type strain. The surviving persister cells were concentrated and redispersed in phosphate-buffered saline (PBS) to prevent persister cells from awakening from their metabolically repressed state.
Persister cells of the P. aeruginosa (PA14) were isolated by treating 250 ml of stationary phase cultures with Ofloxacin (415 µM final concentration). After 24 h treatment, the samples were washed with PBS, and then persister cells were concentred in 10 ml of PBS. The number of persister cells was estimated by serially diluting to determine the colony-forming unit per millilitre (CFU/ml).
All the bactericidal tests were performed on PBS without a carbon source to prevent persister cells from waking up from their low metabolic activity. Ofloxacin-induced persister cells were challenged with antimicrobial agents at the concentrations listed in the text. After the survival bacteria were washed 3× with PBS, the pellet was resuspended in 100 μL of PBS and then spread on an LB plate. The plate was incubated for 72 h at 37° C. before assessing growth.
Another data set concerns PAO1Cip21. In words: Disc diffusion susceptibility (cross-resistance). The class given is cell-based, Pseudomonas aeruginosa. The following applies: isolate after 21 passages in subinhibitory Ciprofloxacin; 5 μg discs.
Data set [2] concerns Acinetobacter baumannii (A. baumannii). The following applies: ref [69], cited from earlier work.
In a further data set the test system is P. aeruginosa (PAO1). The class given is cell-based, Pseudomonas aeruginosa. As to conditions: 21 passages in sub-MIC dosing; MIC at passage n/initial MIC.
For data set [3], the system named is stationary phase culture of P. aeruginosa (PA14). Description: Intracellular reactive oxygen species (DCFH-DA). Type of data set: cell-based, Pseudomonas aeruginosa. As to conditions: relative to PBS-treated group. The method, then: FIGS. 12A-12B. […] (FIG. 12A) Schematic showing how intracellular ROS was determined using the fluorescent probe 2′,7′-dichlorofluorescein diacetate (DCFH-DA).
Cumulatively, the data in this section support that after transiting through OM, AuNC@ATP leads to the fusion of the inner leaflet of OM with the outer leaflet of the cytoplasmic membrane, which leads to bacteria death without cell lysis.
DCFH-DA (2′,7′-dichlorofluorescein diacetate) dye was applied to test the intracellular ROS concentration, which could be cleaved by the intracellular non-specific esterase into the DCFH. DCFH, in the presence of ROS, would be further oxidized into fluorescent DCF (2′,7′-dichlorofluorescein). DCFH-DA in DMSO (10 μM) was added to the treated bacterial solution and further incubated at 37° C., 200 rpm for 15 min. After that, the bacterial cells were centrifuged at 8000 g for 5 min, washed three times with PBS, and resuspended in ultrapure water to the original volume (1 mL). The microplate reader was used to measure the concentration of the produced DCF at the excitation/emission wavelength of 488/525 nm. In this experiment, the fluorescence intensity of DCF directly reflects the amount of ROS generation. […] Finally, the relative ROS production level was calculated by normalizing the ROS level from the treated groups with the production level of the PBS-treated group.

Data set [4] relates to stationary phase culture of gram-negative bacteria. As to conditions: conventional antibiotics, refs [54-56]; cited from earlier work.
The conditions of data set [5]: single injection, mice, ref [79], cited from earlier work.

Entries after “also recorded” stand apart in the source; their conditions may differ. Where two headings read alike, the source gives them in different places.

Procedure for P. aeruginosa (PAO1): The fold change in minimum inhibitory concentration (MIC) was measured as the ratio between the MIC at passage n/initial MIC.
To test this idea, we repeated our serial passaging study with two biologically independent cultures of PAO1.
Serial passage MICs were performed in 96-well microtiter panels. First, an aliquot of the well with the highest concentration permitting growth was taken and back diluted ( 1/100) in new media from inoculated microtiter panels. […] Panels were incubated according to CLSI guidelines, MICs were recorded, and the next inoculum was prepared from the well containing the highest drug concentration that identically allowed growth as described above. Twenty-one repeat passages were performed.
Procedure for PAO1Cip21: In brief, glycerol stocks of each bacteria were streaked on LB plates and grown overnight at 37° C. An inoculum was prepared by diluting several individual colonies in PBS with a 0.5 McFarland Standard turbidity. The inoculum was then spread with sterile cotton swabs on Mueller Hinton agar plates supplemented with 5% sheep blood. Discs containing 5 μg of antipseudomonal drugs were dispensed on the surface of the plate. After 24 h incubation at 37° C., the inhibition zone was measured using a digital calliper.

In the case of `Nc1ncnc2c1ncn2[C@@H]1O[C@H](COP(=O)(O)OP(=O)(O)OP(=O)(O)O)[C@@H](O)[C@H]1O` [ATP, adenosine triphosphate], in data set [1], the “eradication of persister cells by ATP ligand alone” value is listed as “No eradication was observed; also recorded: did not show bactericidal activity”. As for `NCC[C@H](O)C(=O)N[C@@H]1C[C@H](N)[C@@H](O[C@H]2O[C@H](CN)[C@@H](O)[C@H](O)[C@H]2O)[C@H](O)[C@H]1O[C@H]1O[C@H](CO)[C@@H](O)[C@H](N)[C@H]1O` [Amikacin], in the data set on PAO1Cip21, the “inhibition zone diameter compared to the ancestor PAO1” value is given as “decrease in inhibition zone diameter”. For the same compound, the “persister cells formed by A. baumannii in the presence of antibiotic” value in data set [2] is listed as 0.07%. `CO/N=C(\C(=O)N[C@@H]1C(=O)N2C(C(=O)[O-])=C(C[N+]3(C)CCCC3)CS[C@H]12)c1csc(N)n1` [Cefepime]: in the data set with PAO1Cip21, the “inhibition zone diameter compared to the ancestor PAO1” value was “decrease in inhibition zone diameter”. On to `CC(C)(O/N=C(\C(=O)N[C@@H]1C(=O)N2C(C(=O)[O-])=C(C[n+]3ccccc3)CS[C@H]12)c1csc(N)n1)C(=O)O` [Ceftazidime], for which the “inhibition zone diameter compared to the ancestor PAO1” value in the data set on PAO1Cip21 was “decrease in inhibition zone diameter”. Regarding `O=C(O)c1cn(C2CC2)c2cc(N3CCNCC3)c(F)cc2c1=O` [Ciprofloxacin], the “resistance development: increase in MIC” value with P. aeruginosa (PAO1) is recorded as “more than 250 fold”. As for `C[C@@H](O)[C@H]1C(=O)N2C(C(=O)O)=C(S[C@@H]3CN[C@H](C(=O)N(C)C)C3)[C@H](C)[C@H]12` [Meropenem], the “inhibition zone diameter compared to the ancestor PAO1” value with PAO1Cip21 is reported as “decrease in inhibition zone diameter”. In the case of `CC1COc2c(N3CCN(C)CC3)c(F)cc3c(=O)c(C(=O)O)cn1c23` (centres unmarked) [Ofloxacin], in data set [3], the ROS production amounted to 1.2 fold-change. For the same compound, in the data set on P. aeruginosa (PAO1), the “resistance development: increase in MIC” value is over 1500 fold.

As for `Cn1c2cccc(=O)c-2nc2ccccc21` [PYO, pyocyanin], the “increase of persister cells in the presence of PYO” value is 4 fold in data set [2] (with amikacin) and 3 fold in data set [2] (with carbenicillin). Consider `NC[C@H]1O[C@H](O[C@H]2[C@H](O)[C@@H](O[C@H]3O[C@H](CO)[C@@H](O)[C@H](N)[C@H]3O)[C@H](N)C[C@@H]2N)[C@H](N)C[C@@H]1O` [Tobramycin], for which the “resistance development: increase in MIC” value in the data set on P. aeruginosa (PAO1) is on record as “more than 30 fold”. Further, the “inhibition zone diameter compared to the ancestor PAO1” value with PAO1Cip21 is given as “decrease in inhibition zone diameter”. `C[C@H]1[C@H](NC(=O)/C(=N\OC(C)(C)C(=O)O)c2csc(N)n2)C(=O)N1S(=O)(=O)O` [aztreonam]: the “inhibition zone diameter compared to the ancestor PAO1” value in the data set with PAO1Cip21 is “decrease in inhibition zone diameter”. As to `CC1(C)S[C@@H]2[C@H](NC(=O)C(C(=O)O)c3ccccc3)C(=O)N2[C@H]1C(=O)O` (some centres unmarked) [carbenicillin], in data set [2], the “persister cells formed by A. baumannii in the presence of antibiotic” value is 0.02%. As to Colistin, in the data set on PAO1Cip21, the “inhibition zone diameter compared to the ancestor PAO1” value is “decrease in inhibition zone diameter”. For the same compound, the cell lysis result in data set [4] is “cause bacteria cell lysis”. As to Polymyxin-B, the “inhibition zone diameter compared to the ancestor PAO1” value in the data set with PAO1Cip21 is listed as “decrease in inhibition zone diameter”.

For orientation: LD50 means the dose at which mortality reaches 50%. As for tobramycin sulphate, the 50% lethal dose (LD50) in data set [5] (IP) was 262 mg/kg; in data set [5] (IV), 77 mg/kg.

Source of the values: US20250177558A1, “Functionalized Nanoclusters and Their Use in Treating Bacterial Infections” (priority 2022, published 2025).
